Among the data in patent publication US9834518B2, “Compounds for inhibiting cell proliferation in EGFR-driven cancers” (ARIAD Pharmaceuticals, Inc., priority 2011, dated 2017) are IC50 values, retold here.

Assay [1] has as its target human EGFR (native sequence) (Homo sapiens, UniProt P00533). Briefly: Kinase inhibition, human EGFR (native sequence). The format is biochemical. The following applies: 10 μM ATP; 10 pt curves, 3 μM top concentration (singlicates). As to the method:
(§1) Kinase inhibitory activity of the compounds was measured against human EGFR (native sequence) and against EGFR bearing the L858R mution and the L858R/T790M double mutation (EGFR, L858R, and L858R/T790M, respectively in Table 1). Additional assays can be conducted with EGFR deletion mutants such as delE746-A750 with or without the additional T790M mutation. Assay conditions included 10 pt curves with 3 μM top concentration (singlicates) and 10 μM ATP.

Assay [2] has as its target EGFR bearing the L858R mution (Homo sapiens, UniProt P00533, L858R). Briefly: Kinase inhibition, EGFR L858R. In kind it is biochemical. The conditions noted are these: 10 μM ATP; 10 pt curves, 3 μM top concentration (singlicates). On the procedure:
as §1

For assay [3], the target named is EGFR bearing the L858R/T790M double mutation (Homo sapiens, UniProt P00533, L858R/T790M). Briefly: Kinase inhibition, EGFR L858R/T790M. The format is biochemical. The following applies: 10 μM ATP; 10 pt curves, 3 μM top concentration (singlicates). As to the method: as §1
The test system of another assay is BAF3 PARENTAL
Briefly: Cell proliferation (MTT), BAF3 parental. The conditions noted are these: Mus musculus. In kind it is cell-based. On the procedure:
(§2) We also assessed the antiproliferative activity of compounds of Formula (I) against BaF3 cells expressing the target EGFR mutations or control (i.e., cell lines expressing wildtype EGFR). Assays were conducted using MTT.

The target in assay [4] is BAF3 EGFR DEL T790M PURO POOL (Homo sapiens, UniProt P00533, DEL746-750/T790M, cells depend on it). Briefly: Cell proliferation (MTT), BAF3 EGFR DEL T790M. In kind it is cell-based. As to the method:
as §2

In assay [5] the test system is BAF3 EGFR L858R-T790M PURO POOL. The assay is described as follows: Cell proliferation (MTT), BAF3 EGFR L858R-T790M. In kind it is cell-based. The following applies: Ba/F3 EGFR. As to the method:
as §2

EGFR bearing the L858R/T790M double mutation, sequence (P00533 25-1210 T790M/L858R): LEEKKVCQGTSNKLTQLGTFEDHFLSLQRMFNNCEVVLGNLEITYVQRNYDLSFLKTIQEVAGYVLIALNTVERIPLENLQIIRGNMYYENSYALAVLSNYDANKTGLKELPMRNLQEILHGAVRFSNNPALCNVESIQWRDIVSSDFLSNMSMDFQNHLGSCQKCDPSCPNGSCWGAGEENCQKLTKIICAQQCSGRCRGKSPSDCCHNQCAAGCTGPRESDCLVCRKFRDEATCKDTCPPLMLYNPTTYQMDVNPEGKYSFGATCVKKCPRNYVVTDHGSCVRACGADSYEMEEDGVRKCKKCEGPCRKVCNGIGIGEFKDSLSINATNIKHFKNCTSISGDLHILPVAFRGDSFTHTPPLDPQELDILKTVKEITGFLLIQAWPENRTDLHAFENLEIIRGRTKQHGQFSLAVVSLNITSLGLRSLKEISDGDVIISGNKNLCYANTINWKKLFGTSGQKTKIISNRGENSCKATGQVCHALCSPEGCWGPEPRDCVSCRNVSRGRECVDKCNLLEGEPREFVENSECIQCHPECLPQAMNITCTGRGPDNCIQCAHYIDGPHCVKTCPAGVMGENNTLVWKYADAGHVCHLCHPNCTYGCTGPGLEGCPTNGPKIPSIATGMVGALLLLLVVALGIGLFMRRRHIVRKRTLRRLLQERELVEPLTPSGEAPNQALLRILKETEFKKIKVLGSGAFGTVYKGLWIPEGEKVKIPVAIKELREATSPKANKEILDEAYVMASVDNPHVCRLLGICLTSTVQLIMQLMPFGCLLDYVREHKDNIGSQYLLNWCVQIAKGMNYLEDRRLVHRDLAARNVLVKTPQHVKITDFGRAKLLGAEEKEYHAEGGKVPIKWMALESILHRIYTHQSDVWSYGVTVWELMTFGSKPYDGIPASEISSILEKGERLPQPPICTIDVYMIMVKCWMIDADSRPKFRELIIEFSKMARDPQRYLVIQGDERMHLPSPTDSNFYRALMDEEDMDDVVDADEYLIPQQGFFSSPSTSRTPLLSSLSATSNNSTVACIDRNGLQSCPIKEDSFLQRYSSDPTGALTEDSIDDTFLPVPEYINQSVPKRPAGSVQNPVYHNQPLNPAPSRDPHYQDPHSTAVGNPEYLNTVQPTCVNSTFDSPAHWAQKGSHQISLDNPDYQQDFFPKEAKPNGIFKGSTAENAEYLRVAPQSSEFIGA
human EGFR (native sequence), sequence (P00533 25-1210): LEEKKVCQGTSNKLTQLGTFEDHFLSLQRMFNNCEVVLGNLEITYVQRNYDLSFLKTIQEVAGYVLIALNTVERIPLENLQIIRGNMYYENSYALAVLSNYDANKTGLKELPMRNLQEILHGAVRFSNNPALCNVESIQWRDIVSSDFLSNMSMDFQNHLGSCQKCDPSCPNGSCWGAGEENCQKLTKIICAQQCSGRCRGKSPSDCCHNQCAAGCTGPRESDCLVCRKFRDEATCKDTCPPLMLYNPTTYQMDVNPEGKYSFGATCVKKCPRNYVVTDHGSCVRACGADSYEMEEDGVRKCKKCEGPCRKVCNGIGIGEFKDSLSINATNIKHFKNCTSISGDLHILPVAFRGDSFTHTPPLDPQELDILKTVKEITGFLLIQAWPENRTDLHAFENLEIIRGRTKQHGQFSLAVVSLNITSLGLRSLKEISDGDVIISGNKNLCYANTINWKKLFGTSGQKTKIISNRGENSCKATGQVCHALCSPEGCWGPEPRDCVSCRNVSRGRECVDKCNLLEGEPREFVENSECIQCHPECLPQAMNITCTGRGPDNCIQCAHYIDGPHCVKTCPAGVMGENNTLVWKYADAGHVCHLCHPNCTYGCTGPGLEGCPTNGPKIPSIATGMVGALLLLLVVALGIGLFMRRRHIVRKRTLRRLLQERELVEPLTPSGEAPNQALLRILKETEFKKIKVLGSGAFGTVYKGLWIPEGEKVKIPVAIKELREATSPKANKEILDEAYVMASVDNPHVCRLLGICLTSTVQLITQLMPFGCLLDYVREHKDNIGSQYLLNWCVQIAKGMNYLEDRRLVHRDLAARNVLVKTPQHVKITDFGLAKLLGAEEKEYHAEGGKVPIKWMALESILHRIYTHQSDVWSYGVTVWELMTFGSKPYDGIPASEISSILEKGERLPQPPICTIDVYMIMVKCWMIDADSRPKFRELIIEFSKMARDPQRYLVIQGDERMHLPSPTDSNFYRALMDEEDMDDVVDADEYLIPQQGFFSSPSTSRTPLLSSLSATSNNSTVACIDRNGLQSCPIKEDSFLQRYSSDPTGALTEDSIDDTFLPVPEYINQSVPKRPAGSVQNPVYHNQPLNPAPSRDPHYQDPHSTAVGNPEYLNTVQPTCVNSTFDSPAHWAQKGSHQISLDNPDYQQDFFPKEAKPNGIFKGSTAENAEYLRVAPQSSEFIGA
EGFR bearing the L858R mution, sequence (P00533 25-1210 L858R): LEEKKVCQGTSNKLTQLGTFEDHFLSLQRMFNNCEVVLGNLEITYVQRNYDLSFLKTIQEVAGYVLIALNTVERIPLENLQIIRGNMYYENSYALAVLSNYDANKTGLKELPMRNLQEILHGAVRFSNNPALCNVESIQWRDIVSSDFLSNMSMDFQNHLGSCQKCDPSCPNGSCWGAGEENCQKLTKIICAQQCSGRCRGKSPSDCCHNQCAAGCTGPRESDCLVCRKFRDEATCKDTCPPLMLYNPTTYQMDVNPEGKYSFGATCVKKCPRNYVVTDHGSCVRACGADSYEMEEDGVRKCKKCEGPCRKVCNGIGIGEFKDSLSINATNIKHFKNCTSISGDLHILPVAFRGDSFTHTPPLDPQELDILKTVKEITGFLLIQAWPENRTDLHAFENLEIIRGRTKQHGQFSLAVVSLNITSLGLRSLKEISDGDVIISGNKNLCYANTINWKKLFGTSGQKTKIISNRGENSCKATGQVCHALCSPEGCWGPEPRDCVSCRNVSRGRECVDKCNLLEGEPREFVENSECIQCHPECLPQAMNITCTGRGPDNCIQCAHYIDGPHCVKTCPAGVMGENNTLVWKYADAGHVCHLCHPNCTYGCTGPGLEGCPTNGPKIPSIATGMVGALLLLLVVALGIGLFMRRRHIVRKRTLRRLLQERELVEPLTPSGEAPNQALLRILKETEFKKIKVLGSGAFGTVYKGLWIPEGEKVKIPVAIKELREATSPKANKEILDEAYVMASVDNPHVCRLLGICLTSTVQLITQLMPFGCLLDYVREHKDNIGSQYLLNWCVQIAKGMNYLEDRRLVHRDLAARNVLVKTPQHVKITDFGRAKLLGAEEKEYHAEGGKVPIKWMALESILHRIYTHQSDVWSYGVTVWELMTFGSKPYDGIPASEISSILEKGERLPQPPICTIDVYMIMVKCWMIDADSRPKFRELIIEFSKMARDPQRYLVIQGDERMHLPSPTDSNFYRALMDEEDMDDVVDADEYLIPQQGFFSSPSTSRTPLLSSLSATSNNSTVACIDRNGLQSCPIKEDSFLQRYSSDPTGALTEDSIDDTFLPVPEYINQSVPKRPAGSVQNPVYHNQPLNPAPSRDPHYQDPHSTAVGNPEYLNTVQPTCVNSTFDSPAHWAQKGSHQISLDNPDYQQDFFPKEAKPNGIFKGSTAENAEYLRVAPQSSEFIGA
BAF3 EGFR DEL T790M PURO POOL, sequence (P00533 with tags, fused parts or gaps DEL746-750/T790M): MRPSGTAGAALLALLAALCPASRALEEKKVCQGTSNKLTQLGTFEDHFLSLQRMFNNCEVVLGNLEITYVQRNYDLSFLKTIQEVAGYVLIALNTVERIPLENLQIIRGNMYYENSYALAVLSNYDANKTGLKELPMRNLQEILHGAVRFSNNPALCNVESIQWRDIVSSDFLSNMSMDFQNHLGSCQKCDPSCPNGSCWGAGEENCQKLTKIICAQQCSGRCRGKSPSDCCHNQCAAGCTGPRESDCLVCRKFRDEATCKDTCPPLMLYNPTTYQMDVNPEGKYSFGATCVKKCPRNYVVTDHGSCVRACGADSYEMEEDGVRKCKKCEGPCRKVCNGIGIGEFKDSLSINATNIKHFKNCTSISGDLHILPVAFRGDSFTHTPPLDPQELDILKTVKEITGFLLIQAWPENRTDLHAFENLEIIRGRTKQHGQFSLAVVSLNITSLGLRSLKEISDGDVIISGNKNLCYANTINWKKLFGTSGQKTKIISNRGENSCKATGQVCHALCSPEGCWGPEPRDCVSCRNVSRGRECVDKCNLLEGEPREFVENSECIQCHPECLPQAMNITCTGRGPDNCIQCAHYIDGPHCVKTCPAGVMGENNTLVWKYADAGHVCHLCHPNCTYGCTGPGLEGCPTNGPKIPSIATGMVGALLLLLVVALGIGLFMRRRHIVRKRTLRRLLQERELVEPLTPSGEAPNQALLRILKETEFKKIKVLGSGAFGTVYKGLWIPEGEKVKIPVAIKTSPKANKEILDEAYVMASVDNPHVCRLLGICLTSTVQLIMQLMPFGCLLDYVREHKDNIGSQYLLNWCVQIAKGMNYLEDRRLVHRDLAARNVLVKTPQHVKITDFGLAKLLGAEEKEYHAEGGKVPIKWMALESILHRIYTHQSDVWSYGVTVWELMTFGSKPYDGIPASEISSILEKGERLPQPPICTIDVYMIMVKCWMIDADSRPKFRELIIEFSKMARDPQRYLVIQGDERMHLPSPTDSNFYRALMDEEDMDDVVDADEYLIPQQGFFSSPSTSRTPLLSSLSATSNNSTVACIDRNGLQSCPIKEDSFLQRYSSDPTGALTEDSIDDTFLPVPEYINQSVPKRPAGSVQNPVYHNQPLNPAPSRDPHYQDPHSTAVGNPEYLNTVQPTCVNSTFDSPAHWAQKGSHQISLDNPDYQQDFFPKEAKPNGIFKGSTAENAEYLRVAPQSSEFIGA

For `C=C(C)C(=O)Nc1ccc(OC)c(Nc2ncc(Cl)c(Nc3ccccc3P(C)(C)=O)n2)c1` [Example 5c, N-(3-((5-chloro-4-((2-(dimethylphosphoryl)phenyl)amino)pyrimidin-2-yl)amino)-4-methoxyphenyl)methacrylamide], the IC50 (as a rule, the concentration needed to halve the response being measured) is at least 250 nM in assay [1]; at least 250 nM in assay [2]; at least 250 nM in assay [3]; at least 250 nM with BAF3 PARENTAL; 101 to 250 nM in assay [4]; at least 250 nM in assay [5].
Turning to `COCCOc1cc(OC)c(Nc2ncc(Cl)c(Nc3ccccc3P(C)(C)=O)n2)cc1NC(=O)/C=C/CN(C)C` [Example 57, (E)-N-(5-((5-chloro-4-((2-(dimethylphosphoryl)phenyl)amino)pyrimidin-2-yl)amino)-4-methoxy-2-(2-methoxyethoxy)phenyl)-4-(dimethylamino)but-2-enamide], the IC50 was at least 250 nM in assay [1]; under 51 nM in assay [2]; under 51 nM in assay [3]; at least 250 nM in the assay with BAF3 PARENTAL; at least 250 nM in assay [4]; at least 250 nM in assay [5].
As for `C=CC(=O)Nc1cc(Nc2ncc(Cl)c(Nc3ccccc3P(C)(C)=O)n2)c(OC)cc1OCCOC` [Example 25, N-(5-((5-chloro-4-((2-(dimethylphosphoryl)phenyl)amino)pyrimidin-2-yl)amino)-4-methoxy-2-(2-methoxyethoxy)phenyl)acrylamide], the IC50 in assay [1] is at least 250 nM; in assay [2], under 51 nM; in assay [3] it was under 51 nM; in the assay on BAF3 PARENTAL, at least 250 nM; in assay [4], under 51 nM; in assay [5] it was 51 to 100 nM.
In the case of `C=CC(=O)Nc1cc(Nc2ncc(CC)c(Nc3ccccc3P(C)(C)=O)n2)c(OC)cc1N(C)CCN(CC)CC` [Example 62, N-(2-((2-(diethylamino)ethyl)(methyl)amino)-5-((4-((2-(dimethylphosphoryl)phenyl)amino)-5-ethylpyrimidin-2-yl)amino)-4-methoxyphenyl)acrylamide], the IC50 is 51 to 100 nM in assay [1]; under 51 nM in assay [2]; 51 to 100 nM in assay [3]; at least 250 nM in the assay with BAF3 PARENTAL; under 51 nM in assay [4]; under 51 nM in assay [5].
As for `COc1ccc(NC(=O)/C=C/CN(C)C)cc1Nc1ncc(Cl)c(Nc2ccccc2P(C)(C)=O)n1` [Example 2, (E)-N-(3-((5-chloro-4-((2-(dimethylphosphoryl)phenyl)amino)pyrimidin-2-yl)amino)-4-methoxyphenyl)-4-(dimethylamino)but-2-enamide], the IC50 in assay [1] is 101 to 250 nM; in assay [2] it was under 51 nM; in assay [3], under 51 nM; in the assay on BAF3 PARENTAL, at least 250 nM; in assay [4] it was under 51 nM; in assay [5], 51 to 100 nM.
For the compound `C=CP(C)(=O)Cc1ccc(OC)c(Nc2ncc(Cl)c(Nc3ccccc3P(C)(C)=O)n2)c1` (stereo not drawn) [Example 60, (2-((5-chloro-2-((2-methoxy-5-((methyl(vinyl)phosphoryl)methyl)phenyl)amino)pyrimidin-4-yl)amino)phenyl)dimethylphosphine oxide], the IC50 (in assay [1]; in assay [2]; in assay [3]; with BAF3 PARENTAL; in assay [4]; in assay [5]) was at least 250 nM throughout.
Turning to `C=CC(=O)Nc1cc(Nc2ncc(Cl)c(Nc3ccccc3P(C)(C)=O)n2)c(OC)cc1F` [Example 22], the IC50 in assay [1] was under 51 nM; in assay [2], under 51 nM; in assay [3], under 51 nM; in the assay on BAF3 PARENTAL, at least 250 nM; in assay [4], under 51 nM; in assay [5], under 51 nM.
For `C=CC(=O)Nc1cc(Nc2ncc(Cl)c(Nc3ccccc3P(C)(C)=O)n2)c(OC)cc1CCN(CC)CC` [Example 41, N-(5-((5-chloro-4-((2-(dimethylphosphoryl)phenyl)amino)pyrimidin-2-yl)amino)-2-(2-(diethylamino)ethyl)-4-methoxyphenyl)acrylamide], the IC50 was under 51 nM in assay [1]; under 51 nM in assay [2]; under 51 nM in assay [3]; at least 250 nM in the assay on BAF3 PARENTAL; under 51 nM in assay [4]; 51 to 100 nM in assay [5].
Regarding `C=CC(=O)Nc1ccc(OC)c(Nc2ncc(C3CC3)c(Nc3ccccc3P(C)(C)=O)n2)c1` [Example 65, N-(3-((5-cyclopropyl-4-((2-(dimethylphosphoryl)phenyl)amino)pyrimidin-2-yl)amino)-4-methoxyphenyl)acrylamide], the IC50 was 51 to 100 nM in assay [1]; under 51 nM in assay [2]; under 51 nM in assay [3]; at least 250 nM with BAF3 PARENTAL; under 51 nM in assay [4]; under 51 nM in assay [5].
Consider `COc1cc(F)c(NC(=O)/C=C/CN(C)C)cc1Nc1ncc(Cl)c(Nc2ccccc2P(C)(C)=O)n1` [Example 56, (E)-N-(5-((5-chloro-4-((2-(dimethylphosphoryl)phenyl)amino)pyrimidin-2-yl)amino)-2-fluoro-4-methoxyphenyl)-4-(dimethylamino)but-2-enamide], for which the IC50 is 101 to 250 nM in assay [1]; under 51 nM in assay [2]; under 51 nM in assay [3]; at least 250 nM with BAF3 PARENTAL; under 51 nM in assay [4]; under 51 nM in assay [5].
Consider `C=CC(=O)Nc1cc(Nc2ncc(Cl)c(Nc3ccccc3P(C)(C)=O)n2)c(OC)cc1OC1CCOC1` (stereo not drawn) [Example 24, N-(5-((5-chloro-4-((2-(dimethylphosphoryl)phenyl)amino)pyrimidin-2-yl)amino)-4-methoxy-2-((tetrahydrofuran-3-yl)oxy)phenyl)acrylamide], for which the 50% inhibitory concentration (IC50) was at least 250 nM in assay [1]; under 51 nM in assay [2]; under 51 nM in assay [3]; at least 250 nM in the assay with BAF3 PARENTAL; at least 250 nM in assay [4]; 101 to 250 nM in assay [5].
Turning to `COc1ccc(N2C(=O)C=CC2=O)cc1Nc1ncc(Cl)c(Nc2ccccc2P(C)(C)=O)n1` [Example 46, 1-(3-((5-chloro-4-((2-(dimethylphosphoryl)phenyl)amino)pyrimidin-2-yl)amino)-4-methoxyphenyl)-1H-pyrrole-2,5-dione], the IC50 is at least 250 nM in assay [1]; 101 to 250 nM in assay [2]; at least 250 nM in assay [3]; at least 250 nM in the assay with BAF3 PARENTAL; at least 250 nM in assay [4]; at least 250 nM in assay [5].
Turning to `C=CC(=O)Nc1cc(Nc2ncc(Cl)c(Nc3ccccc3P(C)(C)=O)n2)c(OC)cc1OC(COC)CN(C)C` (stereo not drawn) [Example 28, N-(5-((5-chloro-4-((2-(dimethylphosphoryl)phenyl)amino)pyrimidin-2-yl)amino)-2-((1-(dimethylamino)-3-methoxypropan-2-yl)oxy)-4-methoxyphenyl)acrylamide], the IC50 in assay [1] was under 51 nM; in assay [2] it was under 51 nM; in assay [3] it was under 51 nM; in the assay on BAF3 PARENTAL, at least 250 nM; in assay [4], under 51 nM; in assay [5] it was under 51 nM.
Take `C=CC(=O)N(C)c1ccc(OC)c(Nc2ncc(Cl)c(Nc3ccccc3P(C)(C)=O)n2)c1` [Example 44, N-(3-((5-chloro-4-((2-(dimethylphosphoryl)phenyl)amino)pyrimidin-2-yl)amino)-4-methoxyphenyl)-N-methylacrylamide]: the IC50 is 101 to 250 nM in assay [1]; under 51 nM in assay [2]; under 51 nM in assay [3]; at least 250 nM with BAF3 PARENTAL; under 51 nM in assay [4]; under 51 nM in assay [5].
With `C=CC(=O)Nc1cc(Nc2ncc(Cl)c(Nc3ccccc3P(C)(C)=O)n2)c(OC)cc1OCCN(C)C` [Example 19, N-(5-((5-chloro-4-((2-(dimethylphosphoryl)phenyl)amino)pyrimidin-2-yl)amino)-2-(2-(dimethylamino)ethoxy)-4-methoxyphenyl)acrylamide], the IC50 in assay [1] is under 51 nM; in assay [2] it was under 51 nM; in assay [3], under 51 nM; in the assay with BAF3 PARENTAL, at least 250 nM; in assay [4], under 51 nM; in assay [5], under 51 nM.
For the compound `C=CC(=O)Nc1ccc(OC)c(Nc2ncc(Cl)c(Nc3ccccc3P(=O)(CC)CC)n2)c1` [Example 15, N-(3-((5-chloro-4-((2-(diethylphosphoryl)phenyl)amino)pyrimidin-2-yl)amino)-4-methoxyphenyl)acrylamide], the IC50 was under 51 nM in assay [1]; under 51 nM in assay [2]; under 51 nM in assay [3]; at least 250 nM in the assay with BAF3 PARENTAL; under 51 nM in assay [4]; under 51 nM in assay [5].
As for `C=CC(=O)Nc1ccc(OC)c(Nc2ncc(Cl)c(Nc3cccc(C)c3P(C)(C)=O)n2)c1` [Example 14, N-(3-((5-chloro-4-((2-(dimethylphosphoryl)-3-methylphenyl)amino)pyrimidin-2-yl)amino)-4-methoxyphenyl)acrylamide], the IC50 in assay [1] is 51 to 100 nM; in assay [2], under 51 nM; in assay [3], under 51 nM; in the assay on BAF3 PARENTAL, at least 250 nM; in assay [4] it was under 51 nM; in assay [5] it was under 51 nM.
